Assay results from patent US20060069132A1, “Azolecarboxamide herbicides” (priority 2004, published 2006).

Legend:
[1] = tested on: bermudagrass; assay: Test C pre-/postemergence herbicide test; type: in vivo, Cynodon dactylon; settings: for Plant response rating (0 = no effect, 100 = complete control), Bermudagrass: 62 g ai/ha
In short: (§1)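 Preemergence: seeds planted and treated with compound in non-phytotoxic solvent with surfactant; postemergence: plants at 2 to 18 cm (1- to 4-leaf stage) sprayed likewise. Kept in greenhouse 12 to 14 days, then visually rated against controls, 0 (no effect) to 100 (complete control).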

[2] = tested on: cocklebur; assay: Test C pre-/postemergence herbicide test; type: in vivo, Xanthium strumarium; settings: for Plant response rating, Cocklebur / Plant response rating (0 = no effect, 100 = complete control), Cocklebur: preemergence; for Plant response rating (0 = no effect, 100 = complete control), Cocklebur: 62 g ai/ha
In short: as §1

[3] = tested on: woolly cupgrass; assay: Test C pre-/postemergence herbicide test; type: in vivo, Eriochloa villosa; settings: for Plant response rating, Cupgrass, Woolly / Plant response rating (0 = no effect, 100 = complete control), Cupgrass, Woolly: preemergence; for Plant response rating (0 = no effect, 100 = complete control), Cupgrass, Woolly: 62 g ai/ha
In short: as §1

[4] = tested on: goosegrass; assay: Test C pre-/postemergence herbicide test; type: in vivo, Eleusine indica; settings: for Plant response rating, Goosegrass / Plant response rating (0 = no effect, 100 = complete control), Goosegrass: preemergence; for Plant response rating (0 = no effect, 100 = complete control), Goosegrass: 62 g ai/ha
In short: as §1

[5] = tested on: kochia; assay: Test C pre-/postemergence herbicide test; type: in vivo, Kochia scoparia; settings: for Plant response rating, Kochia / Plant response rating (0 = no effect, 100 = complete control), Kochia: preemergence; for Plant response rating (0 = no effect, 100 = complete control), Kochia: 62 g ai/ha
In short: as §1

[6] = tested on: lambsquarters; assay: Test C pre-/postemergence herbicide test; type: in vivo, Chenopodium album; settings: for Plant response rating, Lambsquarters / Plant response rating (0 = no effect, 100 = complete control), Lambsquarters: preemergence; for Plant response rating (0 = no effect, 100 = complete control), Lambsquarters: 62 g ai/ha
In short: as §1

[7] = tested on: morningglory; assay: Test C pre-/postemergence herbicide test; type: in vivo, Ipomoea coccinea; design: key to Plant response rating, Morningglory: 0 = no effect, 100 = complete control; settings: for Plant response rating, Morningglory / Plant response rating (0 = no effect, 100 = complete control), Morningglory: preemergence; for Plant response rating (0 = no effect, 100 = complete control), Morningglory: 62 g ai/ha
In short: as §1

[8] = tested on: smallflower umbrella sedge; assay: Test C flooded paddy test; type: in vivo, Cyperus difformis; settings: for Plant response rating, Sedge, Umbrella: 500 g ai/ha, visual rating after 12 to 14 days
[9] = tested on: ducksalad; assay: Test C flooded paddy test; type: in vivo, Heteranthera limosa; settings: for Plant response rating, Ducksalad: 500 g ai/ha, visual rating after 12 to 14 days
[10] = 125 g ai/ha, scale 0 (no effect) to 100 (complete control), visual, 12 to 14 days, preemergence
[11] = 125 g ai/ha, scale 0 (no effect) to 100 (complete control), visual, 12 to 14 days
[12] = 62 g ai/ha, scale 0 to 100 (0 no effect, 100 complete control)
[13] = 125 g ai/ha, scale of 0 to 100, 0 is no effect, 100 is complete control
[14] = 250 g ai/ha, scale of 0 to 100, 0 is no effect, 100 is complete control
[15] = scale 0 to 100 (0 no effect, 100 complete control)
[16] = Preemergence, 500 g ai/ha, scale 0 to 100, 0 no effect, 100 complete control
[17] = 250 g ai/ha, scale 0 to 100 (0 no effect, 100 complete control), visual, 12 to 14 days
[18] = 125 g ai/ha, scale 0 to 100 (0 no effect, 100 complete control)

Structure (SMILES)	Plant response rating (0 = no effect, 100 = complete control), Bermudagrass ([1]; preemergence)	Plant response rating, Bermudagrass [1, 10]	Plant response rating (0 = no effect, 100 = complete control), Cocklebur [2]	Plant response rating, Cocklebur [2, 11]	Plant response rating (0 = no effect, 100 = complete control), Cupgrass, Woolly [3]	Plant response rating, Cupgrass, Woolly [3, 11]	Plant response rating (0 = no effect, 100 = complete control), Goosegrass [4]	Plant response rating, Goosegrass [4, 11]	Plant response rating (0 = no effect, 100 = complete control), Kochia [5]	Plant response rating, Kochia [5, 11]	Plant response rating (0 = no effect, 100 = complete control), Lambsquarters [6]	Plant response rating, Lambsquarters [6, 11]	Plant response rating (0 = no effect, 100 = complete control), Morningglory [7]	Plant response rating, Morningglory [7, 11]	Sedge, Umbrella plant response rating [8, 12]	Sedge, Umbrella plant response rating [8, 14]	Plant response rating, Sedge, Umbrella [8, 15]	Ducksalad plant response rating [9, 12]	Ducksalad plant response rating [9, 14]	Plant response rating, Ducksalad [9, 15]	also measured
CCC(=NO)c1cccc(NC(=O)c2cc(C(C)(C)C)nn2C)c1 [Compound 118]	90	100	20	20	0	0	20	80	20	20	50	60	20	30	0	50	50	0	50	50	Plant response rating, Bermudagrass ([1]; 16 g ai/ha, scale 0 to 100, 0 no effect, 100 complete control, last section of Table C (species set of preemergence test)): 0; Plant response rating, Bermudagrass ([1]; 31 g ai/ha, preemergence, scale 0 to 100): 30; Plant response rating, Cocklebur ([2]; 31 g ai/ha, scale 0 to 100): 0; Plant response rating, Cupgrass, Woolly ([3]; 31 g ai/ha, scale 0 to 100): 0; Plant response rating, Goosegrass ([4]; 31 g ai/ha, scale 0 to 100): 20; Plant response rating, Kochia ([5]; 31 g ai/ha, scale 0 to 100): 10; Plant response rating, Lambsquarters ([6]; 31 g ai/ha, scale 0 to 100): 50; Plant response rating, Morningglory ([7]; 31 g ai/ha, scale 0 to 100): 0; Sedge, Umbrella plant response rating [8, 13]: 50; Ducksalad plant response rating [9, 13]: 50
CCn1nc(C(C)(C)C)cc1C(=O)Nc1cc(C#N)ccc1F [Compound 140]	0	0	0	0	0	0	0	0	70	75	75	85	0	0	0	45	65	0	0	20	Plant response rating, Bermudagrass ([1]; 250 g ai/ha, scale 0 to 100 (0 no effect, 100 complete control), visual, 12 to 14 days, preemergence): 60; Bermudagrass plant response rating [1, 16]: 85; Plant response rating, Cocklebur [2, 17]: 0; Cocklebur plant response rating [2, 16]: 0; Plant response rating, Cupgrass, Woolly [3, 17]: 0; Cupgrass, Woolly plant response rating [3, 16]: 45; Goosegrass plant response rating [4, 16]: 75; Kochia plant response rating [5, 16]: 100; Lambsquarters plant response rating [6, 16]: 100; Morningglory plant response rating [7, 16]: 0; Sedge, Umbrella plant response rating [8, 18]: 20; Ducksalad plant response rating [9, 18]: 0
